From US9938279B2, “Method for treating disease or condition susceptible to amelioration by AMPK activators and compounds of formula which are useful to activate AMP-activated protein kinase (AMPK)” (ENERGENESIS BIOMEDICAL CO., LTD, priority 2013, dated 2018) come the findings set out here.

The subject of test [1] is AMPK. As to the kind of experiment: AMPK activation assay (western blot phospho-AMPK Thr172) in C2C12. The following applies: C2C12 cells, 30 min treatment. It is filed as cell-based, mouse. The method, boiled down: (§1)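 Mouse C2C12, mouse 3T3-L1 and human Hep G2 cells in high-glucose DMEM/10% FBS were treated with compounds for 30 min, 24 h after plating. Lysates were western-blotted for phospho-AMPK (Thr172) and total AMPK, ECL-detected, and bands quantified by densitometry.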
For orientation: Immunoblotting shows a protein as a band on a membrane.

Test [2] deals with AMPK. In words: AMPK activation assay (western blot phospho-AMPK Thr172) in 3T3-L1. Type of test: cell-based, mouse. The following applies: 3T3-L1 cells, 30 min treatment. In short, it runs like this:
as §1

Test [3] deals with AMPK. In words: AMPK activation assay (western blot phospho-AMPK Thr172) in Hep G2. Type of test: cell-based, human. The following applies: Hep G2 cells, 30 min treatment. The method, boiled down: as §1
In test [4] the test system is muscle cell C2C12. As to the kind of experiment: Glucose uptake in vitro (fluorescent glucose analog 2-NBDG). It is filed as cell-based, mouse. The following applies: 30 min treatment, mean±SEM of three experiments. The protocol: Effects of representative compounds on glucose uptake were analyzed in muscle cell C2C12 by using fluorescent glucose analog (2-NBDG, Molecular Probes). C2C12 were treated with selected novel AMPK activator for 30 min at 37° C. then exposed to 500 μM of fluorescent glucose analog. After 5 min incubation at room temperature, cells were washed three times with Kreb-Hepes buffered solution and fix in 70% alcohol. The fluorescence of glucose analog in cells was detected using a Fluorescence Microplate Reader System at 480-nm excitation and 530-nm emission wavelength.
Data are presented as the mean±SEM of three independent experiments.

On to `NC(=O)c1ncn([C@@H]2O[C@H](CO)[C@@H](O)[C@H]2O)c1N` [AICAR, 5-amino-1-β-D-ribofuranosyl-imidazole-4-carboxamide, reference compound], for which, in test [1] (1200 microM), the “AMPK activation (% to control) C2C12” value is given as 335 % to control. The “AMPK activation (% to control) 3T3-L1” value in test [2] (1200 microM) was 340 % to control. Moreover, in test [3] (1200 microM), the “AMPK activation (% to control) Hep G2” value is 319 % to control. Besides, the “Glucose uptake (% to control)” value in test [4] (C2C12, 1200 microM) is on record as 264 ± 19.2 % to control.

`Cc1c[nH]c(=O)[nH]c1=O` [Thymine, thymine]: the “AMPK activation (% to control) C2C12” value in test [1] (1 microM) was 117 % to control; in test [1] (10 microM), 147 % to control; in test [1] (100 microM), 266 % to control; in test [1] (200 microM), 354 % to control. The “AMPK activation (% to control) 3T3-L1” value in test [2] (1 microM) is reported as 109 % to control; in test [2] (10 microM), 129 % to control; in test [2] (100 microM), 235 % to control; in test [2] (200 microM), 318 % to control. The “AMPK activation (% to control) Hep G2” value in test [3] (1 microM) is recorded as 110 % to control; in test [3] (10 microM), 113 % to control; in test [3] (100 microM), 218 % to control; in test [3] (200 microM), 303 % to control. Further, the “Glucose uptake (% to control)” value in test [4] (C2C12, 1 microM) was 110 ± 3.2 % to control; in test [4] (C2C12, 10 microM) it was 167 ± 15.1 % to control; in test [4] (C2C12, 100 microM), 215 ± 18.2 % to control; in test [4] (C2C12, 600 microM) it was 283 ± 22.3 % to control.
